Test results reported in patent US5173498A, “Substituted 3-thia- and 3-oxa-alkylflavones, a process for their preparation, the use thereof, medicaments based on these compounds and intermediates” (Hoechst Aktiengesellschaft, priority 1990, dated 1992).

Assays:
LDL = experiment: Inhibition of Cu^2+-catalyzed LDL oxidation (increase in fluorescence at 430 nm); type: biochemical, pigs; details: Table I; 50% inhibition of fluorescence increase at 430 nm; 5 μM Cu^2+, 2 hours, 37° C., pH 7.4; LDL 0.1 mg protein/ml
Method: The method for testing the antioxidant action of the substances is based on the inhibition of the Cu^2+ -catalyzed oxidation of LDL by active compounds, the increase in fluorescence at 430 nm serving as a measure of the LDL oxidation (U.P. Steinbrecher, J. Biol. Chem. 262. 3603 (1987)).
Blood from freshly slaughtered pigs, which was collected in the presence of EDTA (1 mg/ml) and NaN3 (0.1 mg/ml) and then centrifuged for 20 min at 2,000×g and 4° C. in order to remove the cellular constituents, was used for isolation of the LDL. Stepwise ultracentrifuging of the plasma in NaCl/NaBr solutions having densities of d=1.019 and d=1.063 yielded the LDL fraction (R. J. Havel, H. A. Eder and J. H. Bragdon, J. Clin. Investig. 34, 1345 (1955)). In this method the samples were centrifuged in a 50.2 Ti fixed angle rotor (Beckman Instruments) in each case for 18 hours at 300,000×g and 17° C. In order to lower the EDTA concentration, the LDL fraction obtained in this way had to be subjected for 48 hours to two dialyses in 100 times the volume of a phosphate-buffered saline solution (160 mM NaCl, 10 mM NaH2 PO4) of pH 7.4 (U. P. Steinbrecher, J. L. Witztum, S. Parthasarathy and D. Steinberg, Arteriosclerosis 7, 135 (1987)).
For the oxidation tests, the LDL fraction, which was stored at 4° C., was diluted to 0.1 mg of protein/ml using the dialysis buffer of the abovementioned composition. 2.5 ml of this LDL solution were treated with 25 μl of ethanolic solution having various concentrations of the test substance and the samples were incubated in closed vessels under nitrogen for 1 hour at 37° C., in order initially to achieve an adequate incorporation of the substance in the LDL particles (L. R. McLean and K. A. Hagaman, Biochemistry 28, 321 (1989)). The maximum concentration of the test compounds was 10 μM in the test.
The oxidation of the LDL was effected by adding 12.5 μl of a 1 mM CuSO4 solution, i.e. 5 μM Cu^2+ in the test, and incubating for two hours at 37° C. in cell culture dishes open to the air. The controls contained 25 μl of pure ethanol. To determine the blank, analogously prepared LDL samples were treated with 12.5 μl of a solution of 1 mM CuSO4 and 40 mM EDTA and likewise incubated for 2 hours at 37° C.
After the end of the incubation, the fluorescence intensity emitted at 430 nm was determined in all samples using the excitation wavelength 365 nm (Perkin-Elmer type LS-3 spectrofluorimeter).
The IC50 values, i.e. those molar concentrations which, under the test conditions described, inhibit the increase in fluorescence by 50% (controls =100), were determined for comparison of the strength of action of the antioxidants. For this purpose the fluorescence measurement was carried out as a duplicate determination using, in each case, 5 to 6 different concentrations of the test substance. Plotting the percentage inhibition values on semi-logarithmic paper and graphic interpolation gave the corresponding IC50 (Table I). Vitamin E was used as comparison compound.

[1] = tested on: cholesterol biosynthesis in HEP-G2 cells; experiment: Suppression or inhibition of cholesterol biosynthesis in cell cultures of HEP-G2 cells; type: cell-based; details: Homo sapiens, HepG2, Table II, ^14C-cholesterol formed from ^14C-sodium acetate
Method: Monolayers of HEP-G2 cells in lipoprotein-free nutrient medium were preincubated with corresponding concentrations of the test substances for a certain time (e.g. 1 hour) and after addition of the labeled precursor, for example ^14 C-sodium acetate, the incubation was continued (e.g. 3 hours). After addition of an internal standard (^3 H-cholesterol), a portion of the cells was subjected to alkaline saponification. The lipids in the saponified cells were extracted with chloroform/methanol. After addition of carrier cholesterol, this lipid mixture was separated by preparative thin layer chromatography, the cholesterol band was isolated after rendering visible using iodine vapor and the amount of ^14 C-cholesterol formed from the ^14 C-precursor was determined by scintigraphy. Cell protein was determined in a aliquote portion of the cells, so that the amount of ^14 C-cholesterol formed per unit time per mg of cell protein can be calculated. By comparing this value with the amount of ^14 C-cholesterol which was formed per mg of cell protein and per unit time from a culture which was treated in the same way but free from test substance, the inhibitory effect of the particular test preparation on the cholesterol biosynthesis of HEP-G2 cell cultures was obtained. [drawing 12]
Using the method described above, for example, the following inhibitory values for the cholesterol biosynthesis (in HEP-G2 cells) were determined for the compounds according to the invention (the IC50 value in mole/liter is that concentration of the compound which effects a 50% inhibition of the cholesterol biosynthesis) (Tab. II).

| Molecule | IC50 (LDL) | IC50 [1] |
| --- | --- | --- |
| CCCCCCCCCCCCSCc1c(-c2ccc(F)cc2)oc2cc(O)cc(O)c2c1=O [Example 9b] | 12 µM |  |
| CCCCCCCCCCCCCCCCCCSCc1c(-c2ccc(F)cc2)oc2cc(O)cc(O)c2c1=O [Example 9d] | 8 µM |  |
| CC(C)=CCC/C(C)=C/CC/C(C)=C/CSCc1c(-c2ccc(F)cc2)oc2cc(O)cc(O)c2c1=O [Example 9l] |  | 0.08 µM |
| COc1ccc(-c2oc3cc(O)cc(O)c3c(=O)c2CSC/C=C(\C)CC/C=C(\C)CCC=C(C)C)cc1 [Example 9m] |  | 0.08 µM |
| Vitamin E [reference compound] | 4.8 µM |  |

Continued, in another order:

| IC50 (LDL) | Molecule | IC50 [1] |
| --- | --- | --- |
| 0.33 µM | C/C(=C\CSCc1c(-c2ccc(F)cc2)oc2cc(O)cc(O)c2c1=O)CCC[C@H](C)CCC[C@H](C)CCCC(C)C [Example 9e] | 0.01 µM |
| 0.9 µM | C/C(=C\CSCc1c(-c2ccc(O)cc2)oc2cc(O)cc(O)c2c1=O)CCC[C@H](C)CCC[C@H](C)CCCC(C)C [Example 9i] | 0.009 µM |
